Test results from patent publication US9127078B2, “Methods and compositions using splicing regulatory proteins involved in tumor suppression” (The Trustees of the University of Pennsylvania, priority 2008, dated 2015).

System: PKC-neg-40B-Luc minigene in 293T cells
Assay: Luciferase splicing reporter screen of the LOPAC 1280 library
Type: cell-based
Conditions: for Avg Med norm: luciferase fold-increase over the Average Median norm for each plate exclusive of Esrp1 control wells; for Avg Med norm / Avg DMSO Norm: 293T reporter cells, 24 hours; for Avg DMSO Norm: luciferase fold-increase over the Average control (DMSO) norm; for luciferase readings versus background reading: LOPAC screen, result in words
Protocol: Briefly, compounds from the LOPAC™ library were dissolved in DMSO. 293T cells (which express predominantly FGFR2-IIIc) which stably express the PKC-neg-40B-Luc minigene, as described in Example 1, were incubated with the compounds or with a DMSO control for 24 hours. After the incubation period, BriteLite luciferase readout reagent was added to each well and the plates were read on an Analyst HT multimode plate reader (Molecular Devices). As positive controls, we also added a cDNA encoding the mouse Esrp1 protein to individual wells on each plate.
The results were then ranked in order from largest fold change over background down to the DMSO blank.

With `CNCC(O)c1ccc(O)c(O)c1.Cl` (racemic) [(±)-Epinephrine hydrochloride] the “Avg Med norm” value was 1.714 fold and the “Avg DMSO Norm” value was 1.674 fold.

With `CC(C)NCC(O)c1ccc(O)c(O)c1.Cl` (racemic) [(±)-Isoproterenol hydrochloride] the “Avg Med norm” value was 1.713 fold and the “Avg DMSO Norm” value was 1.663 fold.

`NC(N)=NC(=O)c1nc(Cl)c(N2CCCCCC2)nc1N` [5-(N,N-hexamethylene)amiloride] was tested, and the “Avg Med norm” value was 1.643 fold and the “Avg DMSO Norm” value was 1.762 fold.

In the case of `CNC[C@H](O)c1ccc(O)c(O)c1.O=C(O)C(O)C(O)C(=O)O` [(−)-Epinephrine bitartrate], the “Avg Med norm” value is reported as 1.696 fold and the “Avg DMSO Norm” value is reported as 1.654 fold.

For `C[C@H]1C[C@H]2[C@@H]3CCC4=CC(=O)C=C[C@]4(C)[C@@]3(Cl)[C@@H](O)C[C@]2(C)[C@@]1(O)C(=O)CO` [Beclomethasone, 9alpha-Chloro-16beta-methyl-1,4-pregnadiene-11beta,17alpha,-21triol-3,20-dione], the “luciferase readings versus background reading” value was “significantly over the background reading”, the “Avg Med norm” value was 1.861 fold and the “Avg DMSO Norm” value was 1.996 fold.

`Clc1ccccc1C(c1ccccc1)(c1ccccc1)n1ccnc1` [Clotrimazole, 1-(o-Chlorotrityl)-imidazole] was tested, and the “Avg Med norm” value was 1.671 fold and the “Avg DMSO Norm” value was 1.792 fold.

With `CCNC(=O)[C@H]1O[C@@H](n2cnc3c(NCc4ccccc4)ncnc32)[C@H](O)[C@@H]1O` [N6-Benzyl-5′-N-ethylcarboxamidoadenosine] the “luciferase readings versus background reading” value was “significantly over the background reading”, the “Avg Med norm” value was 1.822 fold and the “Avg DMSO Norm” value was 1.953 fold.

In the case of `OC[C@H]1O[C@@H](n2cnc3c(Nc4ccccc4)ncnc32)[C@H](O)[C@@H]1O` [N6-Phenyladenosine], the “Avg Med norm” value is reported as 1.942 fold and the “Avg DMSO Norm” value is reported as 2.095 fold.

In the case of `COc1cccc(-c2cc(=O)c3ccccc3o2)c1N` [PD 98,059, 2-(2-Amino-3-methoxyphenyl)-4H-1-benzopyran-4-one], the “Avg Med norm” value is reported as 1.783 fold and the “Avg DMSO Norm” value is reported as 1.923 fold.

In the case of `CCCCCCCCCCCCCC(=O)O[C@@H]1[C@@H](C)[C@@]2(O)[C@@H](C=C(CO)C[C@]3(O)C(=O)C(C)=C[C@@H]23)[C@@H]2C(C)(C)[C@]12OC(C)=O` [Phorbol 12-myristate 13-acetate], the “luciferase readings versus background reading” value is reported as “significantly over the background reading”, the “Avg Med norm” value is reported as 3.825 fold and the “Avg DMSO Norm” value is reported as 4.122 fold.

With `COc1cc([C@@H]2c3cc4c(cc3[C@H](O)[C@H]3COC(=O)[C@H]23)OCO4)cc(OC)c1OC` [Podophyllotoxin] the “luciferase readings versus background reading” value was “significantly over the background reading”, the “Avg Med norm” value was 2.036 fold and the “Avg DMSO Norm” value was 1.985 fold.

For `CC(C)NC[C@H](O)c1ccc(O)c(O)c1.O=C(O)C(O)C(O)C(=O)O` [R(−)-Isoproterenol(+)-bitartrate], the “luciferase readings versus background reading” value was “significantly over the background reading”, the “Avg Med norm” value was 1.996 fold and the “Avg DMSO Norm” value was 1.943 fold.

`COc1cccc(NC(=O)/C=C/c2ccc(Cl)cc2)c1` [SB-366791] was tested, and the “Avg Med norm” value was 1.665 fold and the “Avg DMSO Norm” value was 1.795 fold.

For `Cc1ccc(O)c(N=Nc2ccccc2)n1` [SIB 1757, 6-Methyl-2-(phenylazo)-3-pyridinol], the “luciferase readings versus background reading” value was “significantly over the background reading”, the “Avg Med norm” value was 2.598 fold and the “Avg DMSO Norm” value was 2.803 fold.
